# Assay results as given in US20150274680A1, “THERAPEUTIC OR PROPHYLACTIC AGENT FOR TUMOR LYSIS SYNDROME” (University of Fukui, priority 2012, published 2015).
# What was measured:
# Assay type in all cases: in vivo, human
# [1] = system: high-risk tumor lysis syndrome patient; assay: Therapeutic effect on serum uric acid levels and renal function in a high-risk tumor lysis syndrome patient (Example 1)
# Experimental: In order to investigate the therapeutic effects of febuxostat on a high-risk tumor lysis syndrome patient, a high-risk patient with tumor lysis syndrome which had occurred without antitumor therapy, and already presented hyperuricemia, was given transfusions of fresh frozen plasma and packed red blood cells, and then in addition to increasing a urine volume by supplying fluid and to alkalizing urine, febuxostat (60 mg) was orally administered for 3 days, and the serum uric acid levels and renal function were compared with those before administration of febuxostat.
# A person, Myelodysplastic syndrome (MDS), White blood cell count (WBC) 15400/μL
# [2] = system: patients with hematological malignancies at low or intermediate risk for tumor lysis syndrome; assay: Prophylactic effect on serum uric acid, renal function and urinary uric acid excretion in patients with hematological malignancies receiving chemotherapy (Example 2)
# Experimental: In order to investigate the prophylactic effects of febuxostat on tumor lysis syndrome, 10 mg of febuxostat (the starting dose in gout and hyperuricemia) was orally administered once a day, daily, from just before or the day before chemotherapy was performed on patients with hematological malignancies at low or intermediate risk for tumor lysis syndrome, and the serum uric acid level and the renal function on the fifth day of administration were compared with those before the start of febuxostat administration. For cases in which urine collection was possible, the urinary excretion level of uric acid on the fifth day of administration was compared with that before the start of febuxostat administration. […] Seven male and female cases (6 males and 1 female), aged 36 to 79 (median 70), acute myeloid leukemia (AML 3 cases), diffuse large B-cell lymphoma (DLBCL 2 cases), chronic myelomonocytic leukemia (CMML 1 case), chronic myeloid leukemia (CML 1 case), white blood cell count (WBC) 3,200 to 347,000/μL [table]
# [3] = system: malignant tumor patients with tumor lysis syndrome; assay: Prophylactic effect on serum uric acid levels when chemotherapy is performed on malignant tumor patients with tumor lysis syndrome (Example 3); details: oral once daily from before chemotherapy, adult and pediatric patients; written in present tense, no data
# Experimental: In order to investigate prophylactic effects of febuxostat on tumor lysis syndrome, febuxostat is orally administered once a day, daily, from before chemotherapy is performed on a malignant tumor adult patient with tumor lysis syndrome, and an assessment is made by using serum uric acid levels as indicators. In addition, also for a malignant tumor pediatric patient with tumor lysis syndrome, similar investigation is conducted with febuxostat.
smiles,measurement,setting,value
"Cc1nc(-c2ccc(OCC(C)C)c(C#N)c2)sc1C(=O)O [febuxostat, 2-[3-cyano-4-(2-methylpropoxyl)phenyl]-4-methylthiazole-5-carboxylic acid]",Serum creatinine (Cre),"[1]; Day 4, after 3 days of febuxostat 60 mg/day, 0.87 mg/dL before administration",0.73 mg/dL
same,Estimated glomerular filtration rate (eGFR),"[1]; Day 4, after 3 days of febuxostat 60 mg/day, 53 mL/min before administration",64 mL/min
same,Serum uric acid level (UA),"[1]; Day 4, after 3 days of oral febuxostat 60 mg/day, person, MDS, 9.7 mg/dL on the day before administration",1.7 mg/dL
same,Reduction of serum uric acid level,"[1]; Day 4 vs day before administration, febuxostat 60 mg/day for 3 days",82.4%
same,"Serum uric acid level (UA), Case 2","[2]; Case 2 (AML), fifth day of febuxostat 10 mg/day, 1.9 mg/dL before administration",2.3 mg/dL
same,"Urinary excretion level of uric acid (urinary UA), Case 2","[2]; Case 2, fifth day of febuxostat 10 mg/day, 0.8 g/day before administration",1.6 g/day
same,"Estimated glomerular filtration rate (eGFR), Case 2","[2]; Case 2, fifth day of febuxostat 10 mg/day, 101 mL/min before administration",99 mL/min
same,Acute renal failure,"[2]; all cases, febuxostat 10 mg/day with chemotherapy","in all cases, acute renal failure was prevented"
same,Serum uric acid levels relative to normal levels,"[2]; all cases, prophylactic febuxostat 10 mg with chemotherapy, normal level 7.5 mg/dL or less",maintain the serum uric acid levels within or lower them to within normal levels
same,"Urinary excretion level of uric acid (urinary UA), average","[2]; cases where urine collection was possible, fifth day of febuxostat 10 mg/day, 1.2 g/day on average before administration",0.9 g/day
same,"Serum uric acid level (UA), average","[2]; fifth day of febuxostat 10 mg once daily oral, average of 7 cases, 6.3 mg/dL on average before administration",4.6 mg/dL
same,"Estimated glomerular filtration rate (eGFR), average","[2]; fifth day of febuxostat 10 mg once daily, average, 69.7 mL/min on average before administration",76.9 mL/min
same,"Urinary excretion level of uric acid (urinary UA), severe case with high WBC","[2]; severe case in which WBC was high, fifth day of febuxostat 10 mg/day, 2.4 g/day before administration",0.7 g/day
same,Prevention of tumor lysis syndrome (serum uric acid levels as indicators),[3],effective for the prevention of tumor lysis syndrome
